The record followed here is patent US8530493B2, “Indolopyridines as Eg5 kinesin modulators” (4SC AG, priority 2006, dated 2013).

Assay [1] has as its system RKO p27 or p21 uninduced (proliferating) colon adenocarcinoma cells. Kind of assay: Alamar Blue cell viability assay, RKO p27 or p21 uninduced (proliferating). The class given is cell-based. The conditions noted are these: Homo sapiens, RKOp27, 72 h, Table B2, anti-proliferative/cytotoxic activity, read-out: −log EC50 RKO p27 or p21 uninduced (proliferating) (converted). The method, then: The anti-proliferative/cytotoxic activity of the compounds described herein can be tested on subclones of RKO human colon adenocarcinoma cells (Schmidt et al., Oncogene 19, 2423-2429; 2000) using the Alamar Blue cell viability assay (described in O'Brien et al. Eur J Biochem 267, 5421-5426, 2000). The compounds are dissolved as 10 mM solutions in DMSO and subsequently diluted in semi-logarithmic steps. DMSO dilutions are further diluted 1:100 into Dulbecco's modified Eagle's medium (DMEM) containing 10% fetal calf serum to a final concentration twice as much as the final concentration in the test. RKO subclones are seeded into 96 well flat bottom plates at a density of 4000 cells per well in a volume of 50 μl per well. 24 hours after seeding the 50 μl each of the compound dilutions in DMEM medium are added into each well of the 96 well plate. Each compound dilution is tested as triplicates. Wells containing untreated control cells are filled with 50 μl DMEM medium containing 1% DMSO. The cells are then incubated with the substances for 72 hours at 37° C. in a humidified atmosphere containing 5% carbon dioxide. To determine the viability of the cells, 10 μl of an Alamar Blue solution (Biosource) are added and the fluorescence is measured at an extinction of 544 nm and an emission of 590 nm. For the calculation of the cell viability the emission value from untreated cells is set as 100% viability and the emission rates of treated cells are set in relation to the values of untreated cells. Viabilities are expressed as % values. The Graphpad Prism program is used for the calculation of EC50 values for anti-proliferative/cytotoxic activity out of the obtained dose-response curves.
(§1) To determine the cell cycle specific mode of action, subclones of RKO colon adenocarcinoma cells (RKOp21 or RKOp27 as described by Schmidt et al. in Oncogene 19, 2423-2429; 2000) are seeded into 96 well flat bottom plates at a density of 16000 cells per well in a volume of 50 μl per well in DMEM growth medium with 10% FCS containing 10 μM Ponasterone A. 24 hours after seeding the 50 μl each of the compound dilutions in DMEM medium are added into each well of the 96-well plate. Each compound dilution is tested as triplicates. Wells containing untreated control cells are filled with 50 μl DMEM medium containing 1% DMSO. The cells are then incubated with the substances for 72 hours at 37° C. in a humidified atmosphere containing 5% carbon dioxide. To determine the viability of the cells, 10 μl of an Alamar Blue solution (Biosource) are added and the fluorescence is measured at an extinction of 544 nm and an emission of 590 nm. For the calculation of the cell viability the emission value from untreated cells is set as 100% viability and the emission rates of treated cells are set in relation to the values of untreated cells. Viabilities are expressed as % values. The Graphpad Prism program (GraphPad Software, Inc) is used for the calculation of EC50 values out of the obtained dose-response curves. Viability is compared of proliferating cells grown in the absence of the inducer Ponasterone A, versus viability of cells arrested by the expression of ectopic p27Kip1 induced by Ponasterone A.
(§2) Representative values for anti-proliferation/cytotoxicity [measured as −log EC50 (mol/l)] determined in the aforementioned assays follow from the following tables B1, B2 and B3, in which the numbers of the compounds correspond to the numbers of the examples.

Assay [2] deals with RKO p27 or p21 induced (arrested) colon adenocarcinoma cells. The assay is described as follows: Alamar Blue cell viability assay, RKO p27 or p21 induced (arrested). The class given is cell-based. As to conditions: Homo sapiens, RKOp27, Table B2, cells arrested by Ponasterone A, 72 hours, read-out: −log EC50 RKO p27 or p21 induced (arrested) (converted). The method, then:
as §1, §2
Background: The colour change of resazurin is a common sign of viable cells or microbes.

A word on the EC50: it is the concentration giving half of the maximal effect.

Molecules are shown by their SMILES. Bounds are passed on as bounds.

In the case of `C[C@@]12Cc3c([nH]c4ccc(Cl)cc34)[C@@H](c3cccc(O)c3)N1C(=O)N(CCNCC(F)F)C2=O` (racemic) [Example 123, (3aSR,10RS)-6-Chloro-2-[2-(2,2-difluoro-ethylamino)-ethyl]-10-(3-hydroxy-phenyl)-3a-methyl-3a,4,9,10-tetrahydro-2,9,10a-triaza-cyclopenta[b]fluorene-1,3-dione], the results for the EC50 in assay [1] and in assay [2] were 39.8 to 251 nM and at least 316 nM, respectively.

On to `COc1ccc2[nH]c3c(c2c1)C[C@@]1(C)C(=O)N(CCCNCC2CC2)C(=O)N1[C@@H]3c1cccc(O)c1` (racemic) [Example 95, (3aSR,10RS)-2-[3-(Cyclopropylmethyl-amino)-propyl]-10-(3-hydroxy-phenyl)-6-methoxy-3a-methyl-3a,4,9,10-tetrahydro-2,9,10a-triaza-cyclopenta[b]fluorene-1,3-dione], for which the EC50 in assay [1] was at most 39.8 nM; in assay [2], at least 3160 nM.

Regarding `COc1ccc2[nH]c3c(c2c1)C[C@@]1(C)C(=O)N(CCCN2CCCCC2)C(=O)N1[C@@H]3c1cccc(O)c1` (racemic) [Example 105, (3aSR,10RS)-10-(3-Hydroxy-phenyl)-6-methoxy-3a-methyl-2-(3-piperidin-1-yl-propyl)-3a,4,9,10-tetrahydro-2,9,10a-triaza-cyclopenta[b]fluorene-1,3-dione], the results for the EC50 in assay [1] and in assay [2] were at most 39.8 nM and at least 316 nM, respectively.

As for `COCCNCCN1C(=O)N2[C@H](c3cccc(O)c3)c3[nH]c4ccc(Cl)cc4c3C[C@@]2(C)C1=O` (racemic) [Example 128, (3aSR,10RS)-6-Chloro-10-(3-hydroxy-phenyl)-2-[2-(2-methoxy-ethylamino)-ethyl]-3a-methyl-3a,4,9,10-tetrahydro-2,9,10a-triaza-cyclopenta[b]fluorene-1,3-dione], the EC50 in assay [1] was at most 39.8 nM; in assay [2], at least 316 nM.

`CNCCCN1C(=O)N2[C@H](c3cccc(O)c3)c3[nH]c4ccc(Cl)cc4c3C[C@@]2(C)C1=O` (racemic) [Example 130, (3aSR,10RS)-6-Chloro-10-(3-hydroxy-phenyl)-3a-methyl-2-(3-methylamino-propyl)-3a,4,9,10-tetrahydro-2,9,10a-triaza-cyclopenta[b]fluorene-1,3-dione]: the EC50 in assay [1] is at most 39.8 nM; in assay [2], at least 316 nM.

With `C=CCN(C)CCCN1C(=O)N2[C@H](c3cccc(O)c3)c3[nH]c4ccc(OC)cc4c3C[C@@]2(C)C1=O` (racemic) [Example 88, (3aSR,10RS)-2-[3-(Allyl-methyl-amino)-propyl]-10-(3-hydroxy-phenyl)-6-methoxy-3a-methyl-3a,4,9,10-tetrahydro-2,9,10a-triaza-cyclopenta[b]fluorene-1,3-dione], the results for the EC50 in assay [1] and in assay [2] were at most 39.8 nM and at least 3160 nM, respectively.

For `COc1ccc2[nH]c3c(c2c1)C[C@@]1(C)C(=O)N(CCCN2CC=CC2)C(=O)N1[C@@H]3c1cccc(O)c1` (racemic) [Example 149, (3aSR,10RS)-2-[3-(2,5-Dihydro-pyrrol-1-yl)-propyl]-10-(3-hydroxy-phenyl)-6-methoxy-3a-methyl-3a,4,9,10-tetrahydro-2,9,10a-triaza-cyclopenta[b]fluorene-1,3-dione], the EC50 in assay [1] is at most 39.8 nM; in assay [2], at least 316 nM.

Regarding `C[C@@]12Cc3c([nH]c4ccc(Cl)cc34)[C@@H](c3cccc(O)c3)N1C(=O)N(CCCN1CCC1)C2=O` (racemic) [Example 141, (3aSR,10RS)-2-(3-Azetidin-1-yl-propyl)-6-chloro-10-(3-hydroxy-phenyl)-3a-methyl-3a,4,9,10-tetrahydro-2,9,10a-triaza-cyclopenta[b]fluorene-1,3-dione], the EC50 in assay [1] was at most 39.8 nM; in assay [2], at least 3160 nM.

On to `CN1CCN(CCN2C(=O)N3[C@H](c4cccc(O)c4)c4[nH]c5ccc(Cl)cc5c4C[C@@]3(C)C2=O)CC1` (racemic) [Example 111, (3aSR,10RS)-6-Chloro-10-(3-hydroxy-phenyl)-3a-methyl-2-[2-(4-methyl-piperazin-1-yl)-ethyl]-3a,4,9,10-tetrahydro-2,9,10a-triaza-cyclopenta[b]fluorene-1,3-dione], for which the EC50 in assay [1] was at most 39.8 nM; in assay [2] it was at least 316 nM.

With `CCN(CC)CCN1C(=O)N2[C@H](c3cccc(O)c3)c3[nH]c4ccc(OC)cc4c3C[C@@]2(C)C1=O` (racemic) [Example 69, (3aSR,10RS)-2-(2-Diethylamino-ethyl)-10-(3-hydroxy-phenyl)-6-methoxy-3a-methyl-3a,4,9,10-tetrahydro-2,9,10a-triaza-cyclopenta[b]fluorene-1,3-dione], the EC50 in assay [1] is at most 39.8 nM; in assay [2], at least 3160 nM.

Consider `C[C@@]12Cc3c([nH]c4ccc(Cl)cc34)[C@@H](c3cccc(O)c3)N1C(=O)N(CCN1CCCCCC1)C2=O` (racemic) [Example 104, (3aSR,10RS)-2-(2-Azepan-1-yl-ethyl)-6-chloro-10-(3-hydroxy-phenyl)-3a-methyl-3a,4,9,10-tetrahydro-2,9,10a-triaza-cyclopenta[b]fluorene-1,3-dione], for which the figures for the EC50 in assay [1] and in assay [2] were at most 39.8 nM and at least 3160 nM, respectively.

As to `CN(CCO)CCN1C(=O)N2[C@H](c3cccc(O)c3)c3[nH]c4ccc(Cl)cc4c3C[C@@]2(C)C1=O` (racemic) [Example 126, (3aSR,10RS)-6-Chloro-2-{2-[(2-hydroxy-ethyl)-methyl-amino]-ethyl}-10-(3-hydroxy-phenyl)-3a-methyl-3a,4,9,10-tetrahydro-2,9,10a-triaza-cyclopenta[b]fluorene-1,3-dione], the EC50 was at most 39.8 nM in assay [1] and at least 316 nM in assay [2].

For the molecule `C=CCN(C)CCN1C(=O)N2[C@H](c3cccc(O)c3)c3[nH]c4ccc(Cl)cc4c3C[C@@]2(C)C1=O` (racemic) [Example 117, (3aSR,10RS)-2-[2-(Allyl-methyl-amino)-ethyl]-6-chloro-10-(3-hydroxy-phenyl)-3a-methyl-3a,4,9,10-tetrahydro-2,9,10a-triaza-cyclopenta[b]fluorene-1,3-dione], the EC50 in assay [1] was at most 39.8 nM; in assay [2], at least 316 nM.

As to `COc1ccc2[nH]c3c(c2c1)C[C@@]1(C)C(=O)N(CCN2CC=CCC2)C(=O)N1[C@@H]3c1cccc(O)c1` (racemic) [Example 68, (3aSR,10RS)-2-[2-(3,6-Dihydro-2H-pyridin-1-yl)-ethyl]-10-(3-hydroxy-phenyl)-6-methoxy-3a-methyl-3a,4,9,10-tetrahydro-2,9,10a-triaza-cyclopenta[b]fluorene-1,3-dione], the EC50 in assay [1] was at most 39.8 nM; in assay [2], at least 3160 nM.

As to `C#CCNCCN1C(=O)N2[C@H](c3cccc(O)c3)c3[nH]c4ccc(OC)cc4c3C[C@@]2(C)C1=O` (racemic) [Example 85, (3aSR,10RS)-10-(3-Hydroxy-phenyl)-6-methoxy-3a-methyl-2-(2-prop-2-ynylamino-ethyl)-3a,4,9,10-tetrahydro-2,9,10a-triaza-cyclopenta[b]fluorene-1,3-dione], the values for the EC50 in assay [1] and in assay [2] were 39.8 to 251 nM and at least 3160 nM, respectively.

Take `C[C@@]12Cc3c([nH]c4ccc(Cl)cc34)[C@@H](c3cccc(O)c3)N1C(=O)N(CCCCl)C2=O` (racemic) [Example 57, (3aSR,10RS)-6-Chloro-2-(3-chloro-propyl)-10-(3-hydroxy-phenyl)-3a-methyl-3a,4,9,10-tetrahydro-2,9,10a-triaza-cyclopenta[b]fluorene-1,3-dione]: the EC50 in assay [1] was 39.8 to 251 nM; in assay [2], at least 316 nM.

For `COc1ccc2[nH]c3c(c2c1)C[C@@]1(C)C(=O)N(CCCNCC(F)F)C(=O)N1[C@@H]3c1cccc(O)c1` (racemic) [Example 142, (3aSR,10RS)-2-[3-(2,2-Difluoro-ethylamino)-propyl]-10-(3-hydroxy-phenyl)-6-methoxy-3a-methyl-3a,4,9,10-tetrahydro-2,9,10a-triaza-cyclopenta[b]fluorene-1,3-dione], the half-maximal effective concentration (EC50) in assay [1] is 39.8 to 251 nM; in assay [2] it was at least 316 nM.
